Here are results for 16 compounds from patent US20260152498A1, “4,5,6,7-TETRAHYDRO-1H-PYRAZOLO[4,3-c]PYRIDINE COMPOUNDS AND DERIVATIVES AS USP1 INHIBITORS” (EXELIXIS, INC., priority 2022, published 2026).

In assay [1] the target is T1, USP1-UAF1 complex (Homo sapiens, UniProt O94782). Description: biochemical.
Experimental: (§1) Biochemical Assay: The compounds were evaluated for their potential to inhibit USP1-UAF1 complex (Boston Biochem, Catalog: E568-050) using a fluorescence-based assay. The final concentrations of USP1-UAF1 complex protein and substrate Ubiquitin-Rhodamine-110 (R&D systems, Catalog U-555-050) used in the assay were 0.45 and 150 nM respectively. 50 mM HEPES pH. 7.5, 100 mM NaCl, 0.5 mM EDTA, 1 mM TCEP, 10% BSA, 0.01% Tween 20 buffer was used in the assay. The total assay volume was 20 μL. […] The final DMSO concentration in the assay was 1%. The compounds were pre-incubated with USP1-UAF1 complex at 25° C. for 15 min. After preincubation, required concentration of substrate was added and incubated at 25° C. for 60 min. Fluorescence at Excitation: 485 nm, Emission: 535 nm was measured in Victor-5 from Perkin Elmer.
(§2) To determine IC50 values, dose response curves were generated by plotting percentage inhibition as a function of inhibitor concentration and the data was fitted to sigmoidal non-linear regression equation (variable slope) using Graph Pad prism software V8.
(§3) The compounds were screened by the above-mentioned assay procedure.
Assay [2] addresses T1, USP1-UAF1 complex. To be noted: 1.2 µM.
Experimental: as §1, §2, §3

Each structure is given as a SMILES string.

T1 sequence (O94782 whole entry): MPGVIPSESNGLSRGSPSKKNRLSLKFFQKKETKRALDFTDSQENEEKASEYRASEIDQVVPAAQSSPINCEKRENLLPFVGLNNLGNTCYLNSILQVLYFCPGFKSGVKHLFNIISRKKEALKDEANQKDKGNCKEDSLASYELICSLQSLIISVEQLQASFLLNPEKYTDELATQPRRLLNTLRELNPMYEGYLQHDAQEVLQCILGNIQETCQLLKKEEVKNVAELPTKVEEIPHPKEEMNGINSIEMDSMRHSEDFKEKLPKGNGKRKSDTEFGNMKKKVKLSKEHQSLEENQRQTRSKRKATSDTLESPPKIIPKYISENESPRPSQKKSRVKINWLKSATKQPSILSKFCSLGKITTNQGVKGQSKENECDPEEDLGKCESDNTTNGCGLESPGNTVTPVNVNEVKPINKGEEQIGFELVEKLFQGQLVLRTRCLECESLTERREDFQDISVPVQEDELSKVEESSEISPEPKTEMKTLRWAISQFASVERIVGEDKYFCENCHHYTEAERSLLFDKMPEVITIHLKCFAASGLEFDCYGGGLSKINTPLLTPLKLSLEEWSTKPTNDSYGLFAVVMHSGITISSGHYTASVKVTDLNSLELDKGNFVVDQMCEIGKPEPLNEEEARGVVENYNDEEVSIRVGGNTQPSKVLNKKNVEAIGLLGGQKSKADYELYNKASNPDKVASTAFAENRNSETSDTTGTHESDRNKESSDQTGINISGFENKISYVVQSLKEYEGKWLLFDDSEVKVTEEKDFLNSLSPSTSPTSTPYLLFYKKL
T1 sequence (Q8TAF3 whole entry partner): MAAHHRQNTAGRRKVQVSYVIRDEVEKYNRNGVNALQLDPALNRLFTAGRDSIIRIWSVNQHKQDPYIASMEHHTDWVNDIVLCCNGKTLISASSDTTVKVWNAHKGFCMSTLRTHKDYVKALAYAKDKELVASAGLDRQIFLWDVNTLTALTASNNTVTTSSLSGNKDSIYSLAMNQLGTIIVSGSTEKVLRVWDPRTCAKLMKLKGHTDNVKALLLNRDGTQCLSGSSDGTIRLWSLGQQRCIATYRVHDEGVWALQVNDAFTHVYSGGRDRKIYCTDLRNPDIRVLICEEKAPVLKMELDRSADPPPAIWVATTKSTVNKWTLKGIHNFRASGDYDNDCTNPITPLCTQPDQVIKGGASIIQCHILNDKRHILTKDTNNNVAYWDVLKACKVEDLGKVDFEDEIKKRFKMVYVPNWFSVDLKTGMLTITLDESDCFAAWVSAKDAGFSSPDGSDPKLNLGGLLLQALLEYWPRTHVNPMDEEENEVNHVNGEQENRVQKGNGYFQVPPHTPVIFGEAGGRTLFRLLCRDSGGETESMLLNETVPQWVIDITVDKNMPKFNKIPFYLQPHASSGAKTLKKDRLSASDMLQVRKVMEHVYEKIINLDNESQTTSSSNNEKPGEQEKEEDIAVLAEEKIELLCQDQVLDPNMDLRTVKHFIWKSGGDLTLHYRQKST

Regarding `CCOc1cc(N2CCc3c(c(-c4c(OC)ncnc4C4CC4)nn3C)C2)ccc1-c1nc(C(F)(F)F)cn1C` [Compound 47, 3-(4-cyclopropyl-6-methoxypyrimidin-5-yl)-5-(3-ethoxy-4-(1-methyl-4-(trifluoromethyl)-1H-imidazol-2-yl)phenyl)-1-methyl-4,5,6,7-tetrahydro-1H-pyrazolo[4,3-c]pyridine], at USP1-UAF1 complex [1], the IC50 (commonly the concentration needed to halve the response being measured) lay in the range of 0.05 to 0.1 µM. On USP1-UAF1 complex [2], the inhibition (as a rule, the share of the control response that was lost under treatment) amounted to 95%.
With `COc1ncnc(C2CC2)c1-c1nn(C)c2c1CN(c1ccc(-c3nc(C(F)(F)F)cn3C)c(N(C)C)c1)CC2` [Compound 48, 5-(3-(4-cyclopropyl-6-methoxypyrimidin-5-yl)-1-methyl-1,4,6,7-tetrahydro-5H-pyrazolo[4,3-c]pyridin-5-yl)-N,N-dimethyl-2-(1-methyl-4-(trifluoromethyl)-1H-imidazol-2-yl)aniline], at USP1-UAF1 complex [1], the IC50 lay in the range of 0.05 to 0.1 µM. Further, the inhibition on USP1-UAF1 complex [2] came out at 97%.
Compound `COc1ncnc(C2CC2)c1-c1nn(C)c2c1CN(c1csc(-c3nc(C(F)(F)F)cn3C)c1)CC2` [Compound 49, 3-(4-cyclopropyl-6-methoxypyrimidin-5-yl)-1-methyl-5-(5-(1-methyl-4-(trifluoromethyl)-1H-imidazol-2-yl)thiophen-3-yl)-4,5,6,7-tetrahydro-1H-pyrazolo[4,3-c]pyridine] yielded a 50% inhibitory concentration (IC50) on USP1-UAF1 complex [1] greater than 0.1 µM. In addition, the inhibition against USP1-UAF1 complex [2] is 14%.
Take `COc1ncnc(C2CC2)c1-c1nn(C)c2c1CN(c1csc(-c3nc(C(F)(F)F)cn3C)n1)CC2` [Compound 50, 4-(3-(4-cyclopropyl-6-methoxypyrimidin-5-yl)-1-methyl-1,4,6,7-tetrahydro-5H-pyrazolo[4,3-c]pyridin-5-yl)-2-(1-methyl-4-(trifluoromethyl)-1H-imidazol-2-yl)thiazole]: at USP1-UAF1 complex [1], the IC50 is greater than 0.1 µM. For the same compound, the inhibition on USP1-UAF1 complex [2] was found to be 20%.
Taken in the same sequence, the figures for `COc1ncnc(C2CC2)c1-c1nn(C)c2c1CN(c1cnc(-n3nc(C(F)(F)F)cc3C)nc1)CC2` [Compound 51, 3-(4-cyclopropyl-6-methoxypyrimidin-5-yl)-1-methyl-5-(2-(5-methyl-3-(trifluoromethyl)-1H-pyrazol-1-yl)pyrimidin-5-yl)-4,5,6,7-tetrahydro-1H-pyrazolo[4,3-c]pyridine] were 0.05 to 0.1 µM and 95%.
On USP1-UAF1 complex [1], `COc1ncnc(C2CC2)c1-c1nn(C)c2c1CN(c1cnc(-c3nc(C(F)(F)F)cn3C)cn1)CC2` [Compound 52, 3-(4-cyclopropyl-6-methoxypyrimidin-5-yl)-1-methyl-5-(5-(1-methyl-4-(trifluoromethyl)-1H-imidazol-2-yl)pyrazin-2-yl)-4,5,6,7-tetrahydro-1H-pyrazolo[4,3-c]pyridine] returned an IC50 of 0.05 to 0.1 µM. Also, on USP1-UAF1 complex [2], the inhibition was 96%.
With `COc1ncnc(C2CC2)c1-c1nn(C)c2c1CN(c1ccc(-c3nn(C)c4c3CN(C)CC4)cc1)CC2` [Compound 53, 3-(4-cyclopropyl-6-methoxypyrimidin-5-yl)-5-(4-(1,5-dimethyl-4,5,6,7-tetrahydro-1H-pyrazolo[4,3-c]pyridin-3-yl)phenyl)-1-methyl-4,5,6,7-tetrahydro-1H-pyrazolo[4,3-c]pyridine], the half-maximal inhibitory concentration (IC50) against USP1-UAF1 complex [1] is greater than 0.1 µM. The same compound had an inhibition against USP1-UAF1 complex [2] of 42%.
As for `COc1ncnc(C2CC2)c1-c1n[nH]c2c1CN(c1ccc(-c3nc(C(F)(F)F)cn3C)cn1)CC2` [Compound 54, 3-(4-cyclopropyl-6-methoxypyrimidin-5-yl)-5-(5-(1-methyl-4-(trifluoromethyl)-1H-imidazol-2-yl)pyridin-2-yl)-4,5,6,7-tetrahydro-1H-pyrazolo[4,3-c]pyridine], the IC50 against USP1-UAF1 complex [1] is greater than 0.1 µM. The inhibition on USP1-UAF1 complex [2] was 91%.
In turn, `COc1ncnc(C2CC2)c1-c1nn(C)c2c1CN(c1ccc(-c3nc(C(F)(F)F)cn3C3CNC3)cc1)CC2` [Compound 55, 5-(4-(1-(azetidin-3-yl)-4-(trifluoromethyl)-1H-imidazol-2-yl)phenyl)-3-(4-cyclopropyl-6-methoxypyrimidin-5-yl)-1-methyl-4,5,6,7-tetrahydro-1H-pyrazolo[4,3-c]pyridine] registered an IC50 against USP1-UAF1 complex [1] greater than 0.1 µM. The same compound registered an inhibition on USP1-UAF1 complex [2] of 87%.
For `COc1ncnc(C2CC2)c1-c1nn(C)c2c1CN(c1ccc(-c3nn(C)c4c3CNCC4)cc1)CC2` [Compound 56, 3-(4-cyclopropyl-6-methoxypyrimidin-5-yl)-1-methyl-5-(4-(1-methyl-4,5,6,7-tetrahydro-1H-pyrazolo[4,3-c]pyridin-3-yl)phenyl)-4,5,6,7-tetrahydro-1H-pyrazolo[4,3-c]pyridine], in that order: greater than 0.1 µM and 5%.
Take `CCc1cc(N2CCc3c(c(-c4c(OC)ncnc4C4CC4)nn3C)C2)ccc1-c1nc(C(F)(F)F)cn1C` [Compound 57, 3-(4-cyclopropyl-6-methoxypyrimidin-5-yl)-5-(3-ethyl-4-(1-methyl-4-(trifluoromethyl)-1H-imidazol-2-yl)phenyl)-1-methyl-4,5,6,7-tetrahydro-1H-pyrazolo[4,3-c]pyridine]: the IC50 against USP1-UAF1 complex [1] was greater than 0.1 µM. On USP1-UAF1 complex [2], this compound yielded an inhibition of 87%.
`CCOc1ncnc(C2CC2)c1-c1nn(C)c2c1CN(c1ccc(-c3nc(C(F)(F)F)cn3C)cc1)CC2` [Compound 58, 3-(4-cyclopropyl-6-ethoxypyrimidin-5-yl)-1-methyl-5-(4-(1-methyl-4-(trifluoromethyl)-1H-imidazol-2-yl)phenyl)-4,5,6,7-tetrahydro-1H-pyrazolo[4,3-c]pyridine] returned an IC50 at USP1-UAF1 complex [1] of less than 0.05 µM. Also, the inhibition at USP1-UAF1 complex [2] is 98%.
At USP1-UAF1 complex [1], `COc1ncnc(C2CC2)c1-c1nn(C)c2c1CN(c1ncc(-c3nc(C(F)(F)F)cn3C)cn1)CC2` [Compound 59, 3-(4-cyclopropyl-6-methoxypyrimidin-5-yl)-1-methyl-5-(5-(1-methyl-4-(trifluoromethyl)-1H-imidazol-2-yl)pyrimidin-2-yl)-4,5,6,7-tetrahydro-1H-pyrazolo[4,3-c]pyridine] came in with an IC50 of 0.05 to 0.1 µM. For the same compound, the inhibition against USP1-UAF1 complex [2] came to 95%.
On to `COc1nccc(C2CC2)c1-c1nn(C)c2c1CN(c1ccc(-c3nc(C(F)(F)F)cn3C)cc1)CC2` [Compound 60, 3-(4-cyclopropyl-2-methoxypyridin-3-yl)-1-methyl-5-(4-(1-methyl-4-(trifluoromethyl)-1H-imidazol-2-yl)phenyl)-4,5,6,7-tetrahydro-1H-pyrazolo[4,3-c]pyridine], for which the IC50 on USP1-UAF1 complex [1] is less than 0.05 µM. Also, the inhibition against USP1-UAF1 complex [2] turned out to be 92%.
Taken in the same sequence, the figures for `Cc1cnn(C(C)C)c1-c1nn(C)c2c1CN(c1ccc(-c3nc(C(F)(F)F)cn3C)cc1)CC2` [Compound 61, 3-(1-isopropyl-4-methyl-1H-pyrazol-5-yl)-1-methyl-5-(4-(1-methyl-4-(trifluoromethyl)-1H-imidazol-2-yl)phenyl)-4,5,6,7-tetrahydro-1H-pyrazolo[4,3-c]pyridine] were less than 0.05 µM and 98%.
At USP1-UAF1 complex [1], `Cc1cnn(C(C)C)c1-c1nn(C)c2c1CN(c1ccc(-c3nc(C(F)(F)F)cn3C)nc1)CC2` [Compound 62, 3-(1-isopropyl-4-methyl-1H-pyrazol-5-yl)-1-methyl-5-(6-(1-methyl-4-(trifluoromethyl)-1H-imidazol-2-yl)pyridin-3-yl)-4,5,6,7-tetrahydro-1H-pyrazolo[4,3-c]pyridine] gave an IC50 of 0.05 to 0.1 µM. Besides, at USP1-UAF1 complex [2], the inhibition was 95%.
